In general, logP refers to a log measure of how a compound divides between an organic and an aqueous phase. Higher therefore signals higher lipophilicity. A word on the solubility: it is how much of the substance goes into solution per volume.

For this series the following is noted: for solubility: 21 °C.

Molecules are shown by their SMILES. Values after ≈ are worked out from the molar mass of the structure shown.

`CCNC(=O)COC(=O)c1ccccc1OC(C)=O` showed a logP of 0.9. Turning to `CSCOC(=O)c1ccccc1OC(C)=O`, the lipophilicity (logP) amounted to 1.94 and the solubility was 2290 µM (≈ 550 µg/mL). The compound `CC(=O)Oc1ccccc1C(=O)OCC(=O)N(C(C)C)C(C)C` had a logP of 2.03. For the compound `CC(=O)Oc1ccccc1C(=O)OCS(C)=O` (stereo not given), the lipophilicity (logP) amounted to 0.11. On to `CCOC(=O)CN(C)C(=O)COC(=O)c1ccccc1OC(C)=O`, for which the lipophilicity (logP) amounted to 1.67. `CC(=O)OCOC(=O)c1ccccc1OC(C)=O` displayed a logP of 1.42. With `CC(=O)Oc1ccccc1C(=O)OCC(=O)N(C)CC(N)=O`, the log partition coefficient (logP) was -0.46. As to `CC(=O)Nc1ccc(OC(=O)c2ccccc2OC(C)=O)cc1`, the lipophilicity (logP) was found to be 2.15 and the solubility came to 63.8 µM (≈ 20 µg/mL).

With `CC(=O)Oc1ccccc1C(=O)OCC(=O)NCC(N)=O`, the logP is -0.43.

Take `CCOC(=O)COC(=O)c1ccccc1OC(C)=O`: the logP stood at 1.67. With `CC(=O)Oc1ccccc1C(=O)Oc1ccccc1`, the log partition coefficient (logP) worked out at 2.88 and the solubility is 78 µM (≈ 20 µg/mL). As to `CC(=O)Oc1ccccc1C(=O)OCC(=O)N(C)C`, the logP is 0.38.
